Measurements reported in PubChem BioAssay (NCI).
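Five compound concentrations were applied to cells in 96-well plates for 48 hours; endpoints were derived by simple linear interpolation of the resulting dose-response curve. GI50: concentration for 50% inhibition of growth. The concentration for full growth arrest is given as TGI.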

Experiments:
Assay in all cases: NCI tumour cell line growth inhibition, 48 h
OVCAR-5 ovarian = tested on: OVCAR-5 ovarian
MALME-3M melanoma = tested on: MALME-3M melanoma
LOX IMVI melanoma = tested on: LOX IMVI melanoma
HT29 colon = tested on: HT29 colon
OVCAR-8 ovarian = tested on: OVCAR-8 ovarian
UACC-257 melanoma = tested on: UACC-257 melanoma
IGROV1 ovarian = tested on: IGROV1 ovarian
HOP-62 NSCLC = tested on: HOP-62 NSCLC
EKVX NSCLC = tested on: EKVX NSCLC
BT-549 breast = tested on: BT-549 breast

| SMILES | TGI (OVCAR-5 ovarian) | TGI (MALME-3M melanoma) | TGI (LOX IMVI melanoma) | TGI (HT29 colon) | TGI (OVCAR-8 ovarian) | TGI (UACC-257 melanoma) | TGI (IGROV1 ovarian) | TGI (HOP-62 NSCLC) | TGI (EKVX NSCLC) | GI50 (EKVX NSCLC) | GI50 (OVCAR-5 ovarian) | GI50 (MALME-3M melanoma) | GI50 (LOX IMVI melanoma) | GI50 (OVCAR-8 ovarian) | GI50 (UACC-257 melanoma) | GI50 (IGROV1 ovarian) | GI50 (HOP-62 NSCLC) | GI50 (HT29 colon) | GI50 (BT-549 breast) | TGI (BT-549 breast) |
| --- | --- | --- | --- | --- | --- | --- | --- | --- | --- | --- | --- | --- | --- | --- | --- | --- | --- | --- | --- | --- |
| NC(=S)NNc1c([N+](=O)[O-])cnn(-c2ccccc2)c1=O | 32.4 µM | 33.7 µM | 23.7 µM | 35.1 µM | 31.8 µM | 38.8 µM | 35 µM | 34.4 µM |  |  |  |  |  |  |  |  |  |  |  |  |
| O=C1C(c2ccccc2)=[N+]([O-])c2ccccc21 | 43.1 µM | 38.5 µM | 14.2 µM | 42.1 µM | 32.6 µM | 26.1 µM |  | 37.4 µM | 35.4 µM |  |  |  |  |  |  |  |  |  |  |  |
| CCCCN(CCCC)c1c([N+](=O)[O-])c(=O)nc2ccccn12 | > 100 µM | > 100 µM |  | > 100 µM | 94.6 µM |  | > 100 µM | 73.6 µM | 94.1 µM |  |  |  |  |  |  |  |  |  |  |  |
| CCC1=NC(CO)[C@H](c2ccccc2)O1 (some centres not stated) | > 100 µM | > 100 µM | > 100 µM | > 100 µM | > 100 µM | > 100 µM | > 100 µM | > 100 µM | > 100 µM |  |  |  |  |  |  |  |  |  |  |  |
| O=[N+]([O-])c1cnn(C2=CNc3ccccc3N=C2)c1 | > 100 µM | > 100 µM |  | > 100 µM | > 100 µM | > 100 µM |  | > 100 µM | > 100 µM |  |  |  |  |  |  |  |  |  |  |  |
| Cc1cccc(-n2c(=S)[nH]c3c(sc(=O)n3-c3ccccc3C)c2=O)c1 | > 100 µM | > 100 µM |  | > 100 µM | > 100 µM | > 100 µM | > 100 µM | > 100 µM | > 100 µM |  |  |  |  |  |  |  |  |  |  |  |
| CN1CC[C@]2(C)c3ccc(O)cc3CC3CCCC1C32C (some centres not stated) | > 100 µM | > 100 µM | > 100 µM | > 100 µM | > 100 µM | > 100 µM | > 100 µM | > 100 µM | > 100 µM |  |  |  |  |  |  |  |  |  |  |  |
| NC(N)=NCCC1OC(=O)C2=C1c1c(O)ccc3nccc(c13)O2 (configuration not stated) | > 100 µM | > 100 µM | > 100 µM |  | > 100 µM | > 100 µM | > 100 µM | > 100 µM | > 100 µM | > 100 µM | > 100 µM | > 100 µM | > 100 µM | > 100 µM | 1.73 µM | > 100 µM | > 100 µM |  |  |  |
| CCOc1cc(/C=N\Nc2nnc(C)n2N)c(C)cc1N(CCCl)CCCl | > 100 µM | 6.77 µM | 11.2 µM | 7.17 µM | > 36 µM | 3.6 µM | > 100 µM | 22.5 µM |  |  | 3.05 µM | 0.377 µM | 0.349 µM | 1.34 µM | 0.396 µM | 1.96 µM | 0.631 µM | 0.648 µM | 1.33 µM | 20.6 µM |
| C/C=C/C=C/C=C/C=C/C(=O)O | > 100 µM | > 100 µM | > 100 µM | > 100 µM | > 100 µM | > 100 µM | > 100 µM | > 100 µM | > 100 µM |  |  |  |  |  |  |  |  |  |  |  |
| Cc1cccc(C)c1NC(=O)C1C(=O)N(c2c(C)cccc2C)C(=O)/C1=N\NC(N)=S (configuration not stated) | > 100 µM | > 100 µM |  | > 100 µM | > 100 µM | > 100 µM | > 100 µM | > 100 µM | > 100 µM |  |  |  |  |  |  |  |  |  |  |  |
